These compounds were tested against human EP4 receptor (Homo sapiens (Human), UniProt P35408) (assay: Test for antagonism of the human EP4 receptor signal (cAMP HTRF)). Settings: cells expressing hEP4, PGE2 at EC80 (0.4 nM), cAMP TR-FRET; read-out: Antagonism hEP4 IC50.
Type: cell-based
Description: The binding of the agonist prostaglandin E2 (PGE2) to the EP4 subtype of human hPGE2-R (hEP4-R) induces the activation of membrane-bound adenylate cyclases and thus the formation of cAMP. In the presence of the phosphodiesterase inhibitor IBMX, this cAMP accumulates intracellularly and is employed in a competitive detection procedure after cell lysis. In this procedure, it competes with a fluorescence-labelled cAMP (cAMP-d2) for binding to an Eu cryptate-labelled anti-cAMP antibody. In the absence of cellular cAMP, a complex is formed between the Eu cryptate-labelled anti-cAMP antibody and the cAMP-d2 molecule, which after excitation at 337 nm makes possible an energy transfer based on FRET (fluorescence resonance energy transfer) to the cAMP-d2 tracer and leads to a long-lasting fluorescence signal (emission at 665 and 620 nm). This signal is time-resolved, i.e. measured in a suitable measuring apparatus after decay of the background fluorescence (time resolved; TR-FRET). The wave ratio determination (emission 665 nm/emission 620 nm*10000) moreover makes it possible to standardize individual measurement differences in the added amounts of the detection reagents.
By means of prostaglandin E2 administration and increase in the intracellular cAMP, a lowering of the FRET signal occurs, which in the case of an antagonistic substance action increases again.
A further 20 min at room temperature later, the cell lysate is measured according to the manufacturer's instructions in a TR-FRET-suitable measuring apparatus (compare cAMP HTRF assay kit: Cisbio International 62AM6PEJ high range)

Chain of human EP4 receptor (P35408 whole entry): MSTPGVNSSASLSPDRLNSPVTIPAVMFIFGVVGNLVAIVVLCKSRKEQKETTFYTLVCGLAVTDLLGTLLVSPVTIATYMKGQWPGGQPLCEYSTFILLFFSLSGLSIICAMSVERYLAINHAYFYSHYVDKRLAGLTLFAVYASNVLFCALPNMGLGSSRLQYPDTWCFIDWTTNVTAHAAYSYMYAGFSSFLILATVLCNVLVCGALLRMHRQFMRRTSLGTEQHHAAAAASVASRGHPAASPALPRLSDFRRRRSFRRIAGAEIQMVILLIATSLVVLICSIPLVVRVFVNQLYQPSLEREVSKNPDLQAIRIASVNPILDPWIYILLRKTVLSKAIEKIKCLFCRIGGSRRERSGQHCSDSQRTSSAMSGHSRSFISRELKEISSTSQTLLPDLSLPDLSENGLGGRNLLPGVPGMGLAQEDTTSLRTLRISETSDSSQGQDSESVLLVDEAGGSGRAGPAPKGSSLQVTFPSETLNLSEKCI

| SMILES | IC50 |
| --- | --- |
| CCn1c2ccccc2c2cc(-c3nc4cc(C(=O)N5CCOCC5)ccc4n3CC3CC3)ccc21 [Example 29, [1-(Cyclopropylmethyl)-2-(9-ethyl-9H-carbazol-3-yl)-1H-benzimidazol-5-yl](morpholin-4-yl)methanone] | 219 nM |
| CCn1c2ccccc2c2cc(-c3nc4cc(C(=O)N5CCC5)ccc4n3CCOC)ccc21 [Example 30, Azetidin-1-yl[2-(9-ethyl-9H-carbazol-3-yl)-1-(2-methoxyethyl)-1H-benzimidazol-5-yl]methanone] | 30.1 nM |
| CCn1c2ccccc2c2cc(-c3nc4cc(C(=O)NCCOC)ccc4n3CCOC)ccc21 [Example 31, 2-(9-Ethyl-9H-carbazol-3-yl)-N,1-bis(2-methoxyethyl)-1H-benzimidazole-5-carboxamide] | 42.8 nM |
| CCn1c2ccc(OC)cc2c2cc(-c3nc4cc(C(=O)O)ccc4n3CCOC)ccc21 [Example 32, 2-(9-Ethyl-6-methoxy-9H-carbazol-3-yl)-1-(2-methoxyethyl)-1H-benzimidazole-5-carboxylic acid] | 27.4 nM |
| C=CCn1c2ccccc2c2cc(-c3nc4cc(C(=O)O)ccc4n3CC3CC3)ccc21 [Example 33, 2-(9-Allyl-9H-carbazol-3-yl)-1-(cyclopropylmethyl)-1H-benzimidazole-5-carboxylic acid] | 28.7 nM |
| Cn1c2ccccc2c2cc(-c3nc4cc(C(=O)O)ccc4n3CC3CC3)ccc21 [Example 34, 1-(Cyclopropylmethyl)-2-(9-methyl-9H-carbazol-3-yl)-1H-benzimidazole-5-carboxylic acid] | 39.4 nM |
| O=C(O)c1ccc2c(c1)nc(-c1ccc3c(c1)c1ccccc1n3CC1CC1)n2CC1CC1 [Example 35, 1-(Cyclopropylmethyl)-2-[9-(cyclopropylmethyl)-9H-carbazol-3-yl]-1H-benzimidazole-5-carboxylic acid] | 33.8 nM |
| COCCn1c(-c2ccc3c(c2)c2ccccc2n3CC2CC2)nc2cc(C(=O)O)ccc21 [Example 36, 2-[9-(Cyclopropylmethyl)-9H-carbazol-3-yl]-1-(2-methoxyethyl)-1H-benzimidazole-5-carboxylic acid] | 13.1 nM |
| CCOC(=O)c1ccc2c(c1)nc(-c1ccc3c(c1)c1ccccc1n3CC)n2CCN1CCCC1 [Example 37, Ethyl 2-(9-ethyl-9H-carbazol-3-yl)-1-[2-(pyrrolidin-1-yl)ethyl]-1H-benzimidazole-5-carboxylate] | 3780 nM |
| CCn1c2ccccc2c2cc(-c3nc4cc(C(=O)O)ccc4n3CCN3CCCC3)ccc21 [Example 38, 2-(9-Ethyl-9H-carbazol-3-yl)-1-[2-(pyrrolidin-1-yl)ethyl]-1H-benzimidazole-5-carboxylic acid] | 742 nM |
| CCn1c2ccccc2c2cc(-c3nc4cc(C(=O)NS(=O)(=O)C(C)(C)C)ccc4n3CCOC)ccc21 [Example 39, N-(tert-Butylsulphonyl)-2-(9-ethyl-9H-carbazol-3-yl)-1-(2-methoxyethyl)-1H-benzimidazole-5-carboxamide] | 768 nM |
| CCn1c2ccccc2c2cc(-c3nc4cc(C(=O)NS(=O)(=O)C5(C)CC5)ccc4n3CCOC)ccc21 [Example 40, 2-(9-Ethyl-9H-carbazol-3-yl)-1-(2-methoxyethyl)-N-[(1-methylcyclopropyl)sulphonyl]-1H-benzimidazole-5-carboxamide] | 78.3 nM |
| CCn1c2ccccc2c2cc(-c3nc4cc(C(=O)NC)ccc4n3CCOC)ccc21 [Example 41, 2-(9-Ethyl-9H-carbazol-3-yl)-1-(2-methoxyethyl)-N-methyl-1H-benzimidazole-5-carboxamide] | 96.7 nM |
| CCn1c2ccccc2c2nc(-c3nc4cc(C(=O)O)ccc4n3CCOC)ccc21 [Example 42, 2-(5-Ethyl-5H-pyrido[3,2-b]indol-2-yl)-1-(2-methoxyethyl)-1H-benzimidazole-5-carboxylic acid] | 239 nM |
| CCn1c2ccc(OC)cc2c2cc(-c3nc4cc(C(=O)O)ccc4n3CC3CC3)ccc21 [Example 43, 1-(Cyclopropylmethyl)-2-(9-ethyl-6-methoxy-9H-carbazol-3-yl)-1H-benzimidazole-5-carboxylic acid] | 54.6 nM |

Reference: patent US9708311B2, “Benzimidazole derivatives as EP4 antagonists” (BAYER PHARMA AKTIENGESELLSCHAFT, priority 2012, dated 2017)
